Experimental data: article PMC12244496 (bioRxiv, 2025)
Where no end group is shown, it is not given here. [ ]: non-standard residue; d: D form. Lys(Me3) = C[N+](C)(C)CCCC[C@H](N)C(=O)O

Key:
[1] = molecular target: core PRC2 (Homo sapiens, UniProt O75530+Q15910); assay: PRC2-core activity assay; assay type: biochemical; conditions: 50 μM peptide; histone H3 peptide (residues 21–44) substrate
[2] = test system: mESCs; assay: Recovery of H3K27me1/2/3 in mESCs after tazemetostat treatment; assay type: cell-based, mouse; conditions: 10 μM for 7 days

Chain of core PRC2 (Q15910 whole entry, the tested form may be a part): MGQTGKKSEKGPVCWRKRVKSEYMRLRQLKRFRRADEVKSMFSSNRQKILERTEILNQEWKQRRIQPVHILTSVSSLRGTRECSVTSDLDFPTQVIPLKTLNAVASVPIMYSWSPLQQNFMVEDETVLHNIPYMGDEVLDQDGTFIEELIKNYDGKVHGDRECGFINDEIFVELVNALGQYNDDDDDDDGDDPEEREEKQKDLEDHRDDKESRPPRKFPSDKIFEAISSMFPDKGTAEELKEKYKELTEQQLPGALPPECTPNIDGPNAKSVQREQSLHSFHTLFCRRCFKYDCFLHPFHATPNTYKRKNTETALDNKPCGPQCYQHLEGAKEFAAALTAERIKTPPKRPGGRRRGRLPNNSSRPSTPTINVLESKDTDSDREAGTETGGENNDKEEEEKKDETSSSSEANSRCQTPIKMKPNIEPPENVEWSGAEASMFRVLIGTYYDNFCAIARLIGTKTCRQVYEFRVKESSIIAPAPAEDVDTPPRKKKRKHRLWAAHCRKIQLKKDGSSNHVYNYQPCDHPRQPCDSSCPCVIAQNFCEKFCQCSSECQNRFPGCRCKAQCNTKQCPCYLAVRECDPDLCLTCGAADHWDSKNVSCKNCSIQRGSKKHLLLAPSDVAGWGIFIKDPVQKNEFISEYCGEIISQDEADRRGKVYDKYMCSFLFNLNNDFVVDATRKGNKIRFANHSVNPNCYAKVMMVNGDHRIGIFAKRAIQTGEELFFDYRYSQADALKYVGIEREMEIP
Chain of core PRC2 (O75530 whole entry, the tested form may be a part): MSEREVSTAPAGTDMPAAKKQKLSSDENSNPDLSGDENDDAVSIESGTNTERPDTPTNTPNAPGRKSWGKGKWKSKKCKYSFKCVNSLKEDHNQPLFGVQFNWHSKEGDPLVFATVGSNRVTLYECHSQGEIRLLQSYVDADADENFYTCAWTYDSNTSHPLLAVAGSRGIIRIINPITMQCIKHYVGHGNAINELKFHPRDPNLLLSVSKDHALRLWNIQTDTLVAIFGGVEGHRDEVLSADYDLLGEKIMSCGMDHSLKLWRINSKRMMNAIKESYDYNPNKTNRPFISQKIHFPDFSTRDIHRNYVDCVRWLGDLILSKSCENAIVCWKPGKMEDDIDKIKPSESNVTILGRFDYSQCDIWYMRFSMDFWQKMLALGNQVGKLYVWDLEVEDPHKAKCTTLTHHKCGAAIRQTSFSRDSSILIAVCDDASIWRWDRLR
Chain of core PRC2 (Q15022 whole entry partner, the tested form may be a part): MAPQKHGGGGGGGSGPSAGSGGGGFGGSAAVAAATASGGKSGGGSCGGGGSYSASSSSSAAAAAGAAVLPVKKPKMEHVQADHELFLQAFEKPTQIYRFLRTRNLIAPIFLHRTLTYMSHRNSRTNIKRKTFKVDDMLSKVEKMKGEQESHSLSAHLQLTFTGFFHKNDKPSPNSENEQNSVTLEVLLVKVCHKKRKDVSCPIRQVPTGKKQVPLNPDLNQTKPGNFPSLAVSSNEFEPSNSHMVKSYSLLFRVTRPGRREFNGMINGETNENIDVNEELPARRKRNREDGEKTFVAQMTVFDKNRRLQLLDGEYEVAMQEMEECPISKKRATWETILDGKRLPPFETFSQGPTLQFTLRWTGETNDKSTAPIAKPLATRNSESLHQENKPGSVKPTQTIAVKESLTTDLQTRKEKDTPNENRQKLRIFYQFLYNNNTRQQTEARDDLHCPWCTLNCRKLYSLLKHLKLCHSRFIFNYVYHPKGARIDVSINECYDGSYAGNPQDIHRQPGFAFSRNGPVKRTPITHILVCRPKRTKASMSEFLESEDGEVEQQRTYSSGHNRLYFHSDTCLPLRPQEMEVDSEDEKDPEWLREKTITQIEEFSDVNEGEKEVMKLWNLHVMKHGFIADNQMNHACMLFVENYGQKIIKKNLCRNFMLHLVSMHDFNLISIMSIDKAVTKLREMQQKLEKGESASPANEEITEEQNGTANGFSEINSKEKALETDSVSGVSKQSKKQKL
Chain of core PRC2 (Q09028 whole entry partner, the tested form may be a part): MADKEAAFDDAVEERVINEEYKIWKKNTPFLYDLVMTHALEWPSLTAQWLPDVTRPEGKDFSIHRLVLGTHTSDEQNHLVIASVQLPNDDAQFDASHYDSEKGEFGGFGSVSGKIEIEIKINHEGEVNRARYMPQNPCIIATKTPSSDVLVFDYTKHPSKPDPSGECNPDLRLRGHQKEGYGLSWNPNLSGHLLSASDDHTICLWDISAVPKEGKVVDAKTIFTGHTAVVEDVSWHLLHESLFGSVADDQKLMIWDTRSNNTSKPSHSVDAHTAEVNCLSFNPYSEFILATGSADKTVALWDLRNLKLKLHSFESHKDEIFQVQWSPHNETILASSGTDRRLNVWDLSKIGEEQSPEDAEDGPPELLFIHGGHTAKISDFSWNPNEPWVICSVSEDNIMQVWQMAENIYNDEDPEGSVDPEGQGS

PRC2 activity (%) [1] [%]	Compound	depletion of H3K27me1/2/3 [2]
583±28	KAAR[Lys(Me3)]SAPA [compound 2]	
485±93	TKAAR[Lys(Me3)]SA [compound 4]	
	CCN(c1cc(-c2ccc(CN3CCOCC3)cc2)cc(C(=O)NCc2c(C)cc(C)[nH]c2=O)c1C)C1CCOCC1 [tazemostat, tazemetostat]	completely depleted
